The values that follow come from patent publication US11925650B2, “Antibacterial chemical compound, its manufacturing method and its use thereof” (National Taiwan University, priority 2022, dated 2024).

Experiment [1] deals with intracellular Salmonella in RAW264.7 cells. The experiment in a line: Intracellular Salmonella viability with autophagy inhibitor 3-MA (HCA). Conditions: 10 mM 3-MA. Format: cell-based, S. typhimurium. How it is done:
FIG. 7. Infected RAW264.7 cells treated with 10 mM of 3-MA for 1 h followed by 0.5 μM of SW14 or mock (DMSO) treatment for 24 hours.
Autophagy was originally characterized as a cellular response to stress, but has been considered to be a defense mechanism to combat host cell infection by intracellular Salmonella. Therefore, to evaluated the role of autophagy in SW14's anti-intracellular Salmonella activity, infected cells are treated with 3-MA, an autophagy inhibitor to block cellular autophagy then followed by treatment with SW14 for 24 h. […] Compared to mock-treated cells, the viability of intracellular Salmonella in cells treated with SW14 or the combination of 3-MA and SW14 were 45% and 36.8%, respectively.

Experiment [2] concerns Salmonella Typhimurium ATCC 14028. The experiment in a line: MIC of antibiotics, strain ATCC 14028. The format is cell-based. Conditions: for MIC: Salmonella enterica.
Experiment [3] deals with Salmonella Typhimurium 0911R. Briefly: MIC of antibiotics, multidrug-resistant isolate 0911R. Format: cell-based. Conditions: Table 5; for MIC: Salmonella enterica, TYPHIMURIUM
Experiment [4] concerns Salmonella Typhimurium NL08.10. The experiment in a line: MIC of antibiotics, multidrug-resistant isolate NL08.10. Format: cell-based. Conditions: Table 5; for MIC: Salmonella enterica, TYPHIMURIUM
Experiment [5] relates to Salmonella Typhimurium SB10. The experiment in a line: MIC of antibiotics, ciprofloxacin-resistant strain SB10. The format is cell-based. Conditions: Table 6; for MIC: Salmonella enterica, TYPHIMURIUM
Experiment [6] deals with intracellular Salmonella in RAW264.7 cells. The experiment in a line: Intracellular Salmonella with cefixime or ciprofloxacin alone or combined with SW14 (HCA). The format is cell-based. The conditions noted are these: 24 hours, alone or combined with 0.5 μM SW14. How it is done: FIG. 4. Salmonella-infected RAW264.7 cells treated with (A) 0.25, 0.5, 1, 2, and 4 mg/L of cefixime (CFM) and (B) 0.03, 0.06, 0.125, 0.25, and 0.5 mg/L of ciprofloxacin (CIP) alone or in combination with 0.5 μM SW14. After 24 hours, the relative numbers of intracellular bacteria were determined using HCA and the results are expressed as relative fluorescence units (RFU).

In experiment [7] the test system is Salmonella Typhimurium SA10. The experiment in a line: MIC of antibiotics, ciprofloxacin-resistant strain SA10. The format is cell-based. The conditions noted are these: Table 6; for MIC: Salmonella enterica, TYPHIMURIUM
Experiment [8] relates to ROS levels in infected macrophages. Briefly: ROS production in Salmonella-infected RAW264.7 cells (H2DCFDA). Format: cell-based. The conditions noted are these: 1 hour; SW14 at concentrations up to 8 μM. How it is done:
FIG. 10. […] The viabilities of intracellular Salmonella in RAW264.7 cells treated with SW14 with/without the ROS scavengers N-acetyl-cysteine (NAC; 10 mM) or glutathione (GSH; 10 mM) are assessed using HCA. […] Salmonella-infected RAW264.7 cells are loaded with 25 μM H2DCFDA for 45 min followed by treatment with SW14 or PMA at various concentrations. […] S. Typhimurium ATCC 14028 is treated with H2O2 alone or in combination with SW14 (0.5 μM) in (C) LB or (D) LPM for 1 hour followed by evaluation by the CFU assay to determine bacterial viability.

The next experiment deals with S. Typhimurium 14028. The experiment in a line: Anti-intracellular Salmonella activity in infected RAW264.7 cells (HCA). Conditions: for Selectivity ratio (IC50/EC50): IC50 RAW264.7 / EC50 S. Typhimurium 14028; for EC50: Salmonella enterica, TYPHIMURIUM, RAW264.7, read-out: EC50 (μM) S. Typhimurium 14028, intracellular Salmonella in infected RAW264.7 cells. The format is cell-based, Salmonella Typhimurium.

In the next experiment the test system is RAW264.7. The experiment in a line: Cytotoxicity in RAW264.7 cells (HCA, MTT cell viability assay). The conditions noted are these: Mus musculus, RAW264.7, read-out: IC50 (μM) RAW264.7. Format: cell-based. A general note: Tetrazolium assays rely on reduction of a dye to a coloured formazan, in cell work by metabolically active cells.
Setting [9] is: CAMH medium, read-out: MIC S. Typhimurium ATCC 14028, CAMH.
The mark [10] stands for this setting: LB medium, read-out: MIC S. Typhimurium ATCC 14028, LB.
The mark [11] stands for this setting: Table 5, read-out: MIC ATCC 14028.
The mark [12] stands for this setting: acidic LPM medium, read-out: MIC S. Typhimurium ATCC 14028, LPM.
The mark [13] stands for this setting: Table 6, read-out: MIC ATCC 14028.

In general, MIC refers to the lowest concentration that inhibits growth of the organism. The term EC50 denotes the concentration giving half of the maximal effect. The term IC50 denotes the point on the concentration scale where inhibition reaches its midpoint.

Where two headings read alike, the source gives them in different places.

Consider `Cn1cnc(=N)c2[nH]cnc21` [3-MA, reference compound], for which the “relative number of intracellular bacteria in 3-MA-treated cells” value in [1] was “increased significantly”.

For `CC1(C)S[C@@H]2[C@H](NC(=O)[C@H](N)c3ccccc3)C(=O)N2[C@H]1C(=O)O` [Ampicillin], the MIC was 4 µg/mL in [2] (setting [9]); 4 µg/mL in [2] (setting [10]); 16 µg/mL in [2] (setting [11]); 1 µg/mL in [2] (setting [12]); > 64 µg/mL in experiment [3]; > 64 µg/mL in experiment [4].

With `O=C(N[C@H](CO)[C@H](O)c1ccc([N+](=O)[O-])cc1)C(Cl)Cl` [Chloramphenicol], the MIC in [2] (setting [11]) stood at 16 µg/mL; in experiment [3], 32 µg/mL; in experiment [4] it was 32 µg/mL.

Consider `O=C(O)c1cn(C2CC2)c2cc(N3CCNCC3)c(F)cc2c1=O` [Ciprofloxacin, ciprofloxacin], for which the MIC in experiment [5] is 4 µg/mL; in experiment [2] (setting [13]), < 0.125 µg/mL; in experiment [7], 4 µg/mL. For the same molecule, the “survival of intracellular Salmonella in macrophages, antibiotic treatment” value in experiment [6] was “inhibited the survival of intracellular Salmonella in macrophages in a dose-dependent manner”.

On to `CC1COc2c(N3CCN(C)CC3)c(F)cc3c(=O)c(C(=O)O)cn1c23` (stereo not drawn) [Ofloxacin], for which the MIC was 8 µg/mL in [5], < 0.125 µg/mL in [2] (setting [13]) and 8 µg/mL in [7].

For `CCCCCCCCCCCCCC(=O)O[C@@H]1[C@@H](C)[C@@]2(O)[C@@H](C=C(CO)C[C@]3(O)C(=O)C(C)=C[C@@H]23)[C@@H]2C(C)(C)[C@]12OC(C)=O` [PMA, reference compound], the “ROS levels (H2DCFDA signal) in infected macrophages” value in [8] was “significantly elevated ROS levels”.

Consider `CO[C@H]1/C=C/O[C@@]2(C)Oc3c(C)c(O)c4c(O)c(c(/C=N/N5CCN(C)CC5)c(O)c4c3C2=O)NC(=O)/C(C)=C\C=C\[C@H](C)[C@H](O)[C@@H](C)[C@@H](O)[C@@H](C)[C@H](OC(C)=O)[C@@H]1C` [Rifampin], for which the MIC in [2] (setting [9]) was 16 µg/mL; in experiment [2] (setting [10]) it was 16 µg/mL; in [2] (setting [12]), 4 µg/mL.

Consider `Cc1cc2c(s1)Nc1ccccc1N=C2NCCN(C)C` [SW39, N1,N1-dimethyl-N2-(2-methyl-10H-benzo[b]thieno[2,3-e][1,4]diazepin-4-yl)ethane-1,2-diamine], for which, in the experiment on S. Typhimurium 14028, the “Selectivity ratio (IC50/EC50)” value was determined as 72.5 and the EC50 was 1.7 µM. Further, the IC50 in the experiment on RAW264.7 worked out at 122 µM.

Consider `Cc1cc2c(s1)Nc1ccccc1N=C2NCCN1CCNCC1` [SW41, 2-methyl-N-(2-(piperazin-1-yl)ethyl)-10H-benzo[b]thieno[2,3-e][1,4]diazepin-4-amine], for which, in the experiment with S. Typhimurium 14028, the “Selectivity ratio (IC50/EC50)” value was determined as 26.8 and the EC50 is 3.9 µM. The 50% inhibitory concentration (IC50) in the experiment with RAW264.7 was determined as 105 µM.

On to `Cc1cc2c(s1)Nc1ccccc1N=C2NCCCN1CCCC1` [SW42, 2-methyl-N-(3-(pyrrolidin-1-yl)propyl)-10H-benzo[b]thieno[2,3-e][1,4]diazepin-4-amine], for which, in the experiment on S. Typhimurium 14028, the “Selectivity ratio (IC50/EC50)” value worked out at 82.6 and the EC50 came out at 0.9 µM. Also, in the experiment on RAW264.7, the IC50 is 76.4 µM.

Turning to `Cc1cc2c(s1)Nc1ccccc1N=C2NCCCN(C)C` [SW43, N1,N1-dimethyl-N3-(2-methyl-10H-benzo[b]thieno[2,3-e][1,4]diazepin-4-yl)propane-1,3-diamine], in the experiment with S. Typhimurium 14028, the “Selectivity ratio (IC50/EC50)” value is given as 82.1 and the EC50 was 1.2 µM. For the same molecule, the IC50 with RAW264.7 was 102 µM.

As for `[H]/N=C(/N)N[C@H]1[C@H](O)[C@@H](O)[C@H](O[C@@H]2O[C@@H](C)[C@](O)(C=O)[C@H]2O[C@@H]2O[C@@H](CO)[C@H](O)[C@@H](O)[C@@H]2NC)[C@@H](N/C(N)=N\[H])[C@@H]1O` [Streptomycin], the MIC is 32 µg/mL in experiment [2] (setting [11]), > 64 µg/mL in experiment [3] and > 64 µg/mL in experiment [4].

`CN(C)[C@@H]1C(O)=C(C(N)=O)C(=O)[C@@]2(O)C(O)=C3C(=O)c4c(O)cccc4[C@@](C)(O)[C@H]3C[C@@H]12` [Tetracycline]: the MIC was 8 µg/mL in experiment [2] (setting [11]), > 64 µg/mL in experiment [3] and > 64 µg/mL in experiment [4].

Turning to `CN[C@H](CC(C)C)C(=O)N[C@H]1C(=O)N[C@@H](CC(N)=O)C(=O)N[C@H]2C(=O)N[C@H]3C(=O)N[C@H](C(=O)N[C@H](C(=O)O)c4cc(O)cc(O)c4-c4cc3ccc4O)[C@H](O)c3ccc(c(Cl)c3)Oc3cc2cc(c3O[C@@H]2O[C@H](CO)[C@@H](O)[C@H](O)[C@H]2O[C@H]2C[C@](C)(N)[C@H](O)[C@H](C)O2)Oc2ccc(cc2Cl)[C@H]1O` [Vancomycin], the MIC was determined as 2050 µg/mL in [2] (setting [9]), 512 µg/mL in experiment [2] (setting [10]) and 128 µg/mL in experiment [2] (setting [12]).

Regarding Gentamycin, the “MIC SB10” value in [5] was 1 µg/mL. For the same molecule, the “MIC ATCC 14028” value in experiment [2] (Table 5) and in experiment [2] (Table 6) was 2 µg/mL in each case. For the same molecule, in experiment [3], the “MIC 0911R” value is 2 µg/mL. The “MIC NL08.10” value in experiment [4] came out at 2 µg/mL. In addition, in experiment [7], the “MIC SA10” value came to 0.5 µg/mL.
